Active and inactive are the calls of the source.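 Rule for the calls: active = EC50 at most 30 µM plus a dose-response curve spanning at least 25% response; inactive = the rest.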
Target: Ras-related C3 botulinum toxin substrate 1 (Homo sapiens) (UniProt P63000)
Test: activated mutant Rac1 GTP binding inhibitors, SAR follow-up, biochemical, pyrazoline analogs, multiplex bead flow cytometry (AID 2048)
Conditions: Bead-based flow cytometry, Bodipy-FL-GTP binding to GST-Rac1; for Ki: measured here: Ki calculated from EC50

| SMILES | EC50 | Ki |
| --- | --- | --- |
| COc1ccc(C2CC(C(C)(C)C)=NN2c2ccc(S(N)(=O)=O)cc2)cc1 (stereo not given) | inactive |  |
| COc1ccc(C2CC(c3ccccc3)=NN2c2ccc(S(N)(=O)=O)cc2)cc1OC (stereo not given) | inactive |  |
| COc1ccc(C2CC(c3ccccc3)=NN2c2ccc(Cl)c(C(=O)O)c2)cc1 (stereo not given) | inactive |  |
| NS(=O)(=O)c1ccc(N2N=C(c3ccccc3)CC2c2cccc(Br)c2)cc1 (stereo not given) | inactive |  |
| COc1ccc(C2CC(c3cccc(N(C)C)c3)=NN2c2ccc(S(N)(=O)=O)cc2)cc1 (stereo not given) | inactive |  |
| COc1ccc(C2=NN(c3cccc(F)c3)C(c3ccc(Cl)cc3)C2)cc1 (stereo not given) | inactive |  |
| Cc1cccc(N2N=C(c3ccccc3)CC2c2ccccc2)c1 (stereo not given) | inactive |  |
| COc1ccc(C2CC(c3cccc(C(F)(F)F)c3)=NN2c2ccc(S(N)(=O)=O)cc2)cc1 (stereo not given) | inactive |  |
| Fc1ccccc1C1CC(c2ccc(Br)cc2)=NN1c1ccc(Br)cc1 (stereo not given) | inactive |  |
| FC(F)(F)c1cccc(N2N=C(c3ccc(Cl)cc3)CC2c2ccccc2Cl)c1 (stereo not given) | inactive |  |
| COc1ccc(C2CC(c3ccc(Cl)cc3)=NN2c2ccccc2)cc1OC (stereo not given) | inactive | 10 nM |
| CC(=O)Oc1ccc(C2=NN(c3ccccc3)C(c3ccccc3)C2)cc1 (stereo not given) | inactive |  |
| COc1ccccc1C1CC(c2ccccc2)=NN1c1ccccc1 (stereo not given) | inactive |  |
| Clc1ccc(N2N=C(c3ccccc3)CC2c2ccccc2)cc1 (stereo not given) | inactive |  |
| COc1ccc(C2CC(c3ccc(Br)cc3)=NN2c2ccc(S(N)(=O)=O)cc2)cc1 (stereo not given) | inactive |  |
| COc1ccc(C2CC(C)=NN2c2ccc(S(N)(=O)=O)cc2)cc1 (stereo not given) | inactive | 10 nM |
| FC(F)(F)c1ccccc1C1CC(c2ccc(Br)cc2)=NN1c1ccccc1 (stereo not given) | inactive |  |
| COc1ccc(C2CC(c3cccs3)=NN2c2ccc(S(N)(=O)=O)cc2)cc1 (stereo not given) | inactive |  |
| COc1ccc(C2CC(c3cccc(Br)c3)=NN2c2ccc(S(N)(=O)=O)cc2)cc1 (stereo not given) | inactive |  |
| NS(=O)(=O)c1ccc(N2N=C(c3ccccc3)CC2c2ccccc2Br)cc1 (stereo not given) | inactive |  |
| COc1ccc(C2CC(c3ccc(F)cc3)=NN2c2cccc(F)c2)cc1OC (stereo not given) | inactive | 3030 nM |
| COc1ccc(C2CC(c3ccccc3Br)=NN2c2ccc(S(N)(=O)=O)cc2)cc1 (stereo not given) | inactive | 40 nM |
| COc1ccc(C2CC(c3ccncc3)=NN2c2ccc(S(N)(=O)=O)cc2)cc1 (stereo not given) | inactive |  |

| SMILES | EC50 | Ki |
| --- | --- | --- |
| COc1ccc(C2CC(c3ccc(C(F)(F)F)cc3)=NN2c2ccc(S(N)(=O)=O)cc2)cc1 (stereo not given) | inactive |  |
| COc1ccc(C2=NN(c3ccc(Cl)cc3)C(c3ccccc3F)C2)cc1 (stereo not given) | inactive | 3260 nM |
| COc1ccc(C2CC(c3ccccc3F)=NN2c2ccc(S(N)(=O)=O)cc2)cc1 (stereo not given) | inactive |  |
| COc1ccc(C2CC(c3ccc(F)cc3)=NN2c2ccc(S(N)(=O)=O)cc2)cc1 (stereo not given) | inactive |  |
| CN(C)c1ccc(C2CC(c3ccc(F)cc3)=NN2c2ccccc2)cc1 (stereo not given) | inactive |  |
| O=S(=O)(O)c1ccc(N2N=C(c3ccccc3)CC2c2ccccc2)cc1 (stereo not given) | inactive |  |
| COc1ccc(C2=NN(c3ccc(S(N)(=O)=O)cc3)C(c3ccc(OC)cc3)C2)cc1 (stereo not given) | inactive |  |
| CN(C)c1ccc(C2CC(c3ccc(Cl)cc3)=NN2c2ccccc2)cc1 (stereo not given) | inactive |  |
| NS(=O)(=O)c1ccc(N2N=C(c3ccccc3)CC2c2cccc(Cl)c2)cc1 (stereo not given) | inactive |  |
| COc1ccc(C2=NN(c3ccccc3)C(c3ccc(OC)c(OC)c3C(=O)O)C2)cc1 (stereo not given) | inactive |  |
| Cc1onc(-c2ccccc2)c1-c1ccc(S(N)(=O)=O)cc1 | inactive |  |
| COc1ccc(C2CC(c3cccnc3)=NN2c2ccc(S(N)(=O)=O)cc2)cc1 (stereo not given) | inactive |  |
| COc1ccc(C2CC(c3ccccc3C)=NN2c2ccc(S(N)(=O)=O)cc2)cc1 (stereo not given) | inactive |  |
| COc1ccc(C2CC(c3ccccc3C(F)(F)F)=NN2c2ccc(S(N)(=O)=O)cc2)cc1 (stereo not given) | inactive |  |
| O=[N+]([O-])c1cccc(C2CC(c3ccccc3)=NN2c2ccccc2)c1 (stereo not given) | inactive |  |
| COc1ccc(C2CC(C3CCCCC3)=NN2c2ccc(S(N)(=O)=O)cc2)cc1 (stereo not given) | inactive |  |
| COc1ccc(C2CC(c3ccccc3)=NN2c2ccc(C(N)=O)cc2)cc1 (stereo not given) | inactive |  |
| COc1ccc(C2CC(c3ccc(F)cc3)=NN2c2ccccc2)cc1OC (stereo not given) | inactive |  |
| COc1ccc(C2CC(c3ccc(F)cc3)=NN2c2cc(Cl)ccc2Cl)cc1 (stereo not given) | inactive |  |
| COc1ccccc1N1N=C(c2ccccc2)CC1c1ccccc1 (stereo not given) | inactive |  |
| COc1ccc(C2=NN(c3ccccc3)C(c3ccc(Cl)cc3)C2)cc1 (stereo not given) | inactive | 840 nM |
| NS(=O)(=O)c1ccc(N2N=C(c3ccccc3)CC2c2ccccc2Cl)cc1 (stereo not given) | inactive |  |
| COc1ccc(C2CC(c3ccc(N(C)C)cc3)=NN2c2ccc(S(N)(=O)=O)cc2)cc1 (stereo not given) | inactive |  |

| SMILES | EC50 | Ki |
| --- | --- | --- |
| Clc1cccc(N2N=C(c3ccccc3)CC2c2ccccc2)c1 (stereo not given) | inactive |  |
| Brc1ccc(N2N=C(c3ccccc3)CC2c2ccccc2)cc1 (stereo not given) | inactive |  |
| COc1ccc(C2CC(c3ccccc3)=NN2c2ccc(Cl)c(C(=O)O)c2)cc1OC (stereo not given) | inactive |  |
| Cc1ccc(C2CC(c3ccccc3)=NN2c2ccc(S(N)(=O)=O)cc2)cc1 (stereo not given) | inactive |  |
| COc1ccc(C2CC(c3ccc(C)cc3)=NN2c2ccc(S(N)(=O)=O)cc2)cc1 (stereo not given) | inactive |  |
| COc1ccc(C2CC(c3ccccc3)=NN2c2ccc([N+](=O)[O-])cc2)cc1 (stereo not given) | inactive |  |
| COc1ccc(C2CC(c3cccc(F)c3)=NN2c2ccc(S(N)(=O)=O)cc2)cc1 (stereo not given) | inactive |  |
| COc1ccc(C2=NN(c3ccccc3)C(c3ccccc3C(F)(F)F)C2)cc1 (stereo not given) | inactive |  |
| COc1ccc(-c2cc(-c3ccccc3)nn2-c2ccc(S(N)(=O)=O)cc2)cc1 | inactive |  |
| COc1ccc(C2CC(c3ccccc3)=NN2c2cccc(S(N)(=O)=O)c2)cc1 (stereo not given) | inactive |  |
| COc1ccc(C2CC(c3ccc(Cl)cc3)=NN2c2ccc(S(N)(=O)=O)cc2)cc1 (stereo not given) | inactive |  |
| Fc1ccc(C2=NN(c3cccc(Br)c3)C(c3ccccc3)C2)cc1 (stereo not given) | inactive |  |
| O=C(O)c1ccc(N2N=C(c3ccccc3)CC2c2ccccc2)cc1 (stereo not given) | inactive |  |
| CN(C)c1ccc(C2CC(c3ccccc3)=NN2c2ccc([N+](=O)[O-])cc2)cc1 (stereo not given) | inactive |  |
| CN(C)c1ccc(C2CC(c3ccccc3)=NN2c2ccccc2)cc1 (stereo not given) | inactive |  |
| COc1ccc(C2=NN(c3ccc(Cl)c(Cl)c3)C(c3ccc(OC)cc3)C2)cc1 (stereo not given) | inactive |  |
| COc1ccc(C2CC(c3cccc(OC)c3)=NN2c2ccc(S(N)(=O)=O)cc2)cc1 (stereo not given) | inactive |  |
| COc1ccc(C2CC(c3cccc(C)c3)=NN2c2ccc(S(N)(=O)=O)cc2)cc1 (stereo not given) | inactive |  |
| COc1ccc(C2CC(c3ccsc3)=NN2c2ccc(S(N)(=O)=O)cc2)cc1 (stereo not given) | inactive |  |
| COc1ccc(C2CC(c3ccc(Br)cc3)=NN2c2ccccc2Cl)cc1 (stereo not given) | inactive | 60 nM |
| COc1ccccc1C1CC(c2ccccc2)=NN1c1ccc(S(N)(=O)=O)cc1 (stereo not given) | inactive |  |
| O=S(=O)(c1ccc(N2N=C(c3ccccc3)CC2c2ccccc2)cc1)C(F)F (stereo not given) | inactive |  |
| O=[N+]([O-])c1cccc(C2CC(c3ccc(F)cc3)=NN2c2ccccc2)c1 (stereo not given) | inactive |  |

| SMILES | EC50 | Ki |
| --- | --- | --- |
| O=S(=O)(c1ccc(N2N=C(c3ccc(Br)cc3)CC2c2ccccc2)cc1)C(F)F (stereo not given) | inactive | 790 nM |
| COc1ccc(C2CC(c3ccccc3)=NN2c2ccc(C(=O)O)cc2)cc1 (stereo not given) | inactive |  |
| CCc1ccc(C2=NN(c3ccc(S(N)(=O)=O)cc3)C(c3ccc(F)cc3)C2)cc1 (stereo not given) | inactive |  |
| COc1ccc(C2CC(c3ccccc3OC)=NN2c2ccc(S(N)(=O)=O)cc2)cc1 (stereo not given) | inactive |  |
| O=[N+]([O-])c1ccc(N2N=C(c3ccccc3)CC2c2ccccc2)cc1 (stereo not given) | inactive |  |
| Cc1ccccc1N1N=C(c2ccccc2)CC1c1cccc([N+](=O)[O-])c1 (stereo not given) | inactive |  |
| Cc1ccc(-c2cc(C(F)(F)F)nn2-c2ccc(S(N)(=O)=O)cc2)cc1 | inactive | 3910 nM |
| NS(=O)(=O)c1ccc(N2N=C(c3ccc(Br)cc3)CC2c2ccc(F)cc2)cc1 (stereo not given) | inactive |  |
| NS(=O)(=O)c1ccc(N2N=C(c3ccccc3)CC2c2ccc(Br)cc2)cc1 (stereo not given) | inactive |  |
| NS(=O)(=O)c1ccc(N2N=C(c3ccccc3)CC2c2ccccc2)cc1 (stereo not given) | inactive |  |
| Cc1ccccc1N1N=C(c2ccccc2)CC1c1ccc(N(C)C)cc1 (stereo not given) | inactive |  |
| COc1ccc(C2CC(c3cccc(Cl)c3)=NN2c2ccc(S(N)(=O)=O)cc2)cc1 (stereo not given) | inactive |  |
| COc1ccc(C2=NN(c3ccccc3F)C(c3ccc(F)cc3)C2)cc1 (stereo not given) | inactive |  |
| COc1ccc(C2CC(c3ccccc3Cl)=NN2c2ccc(S(N)(=O)=O)cc2)cc1 (stereo not given) | inactive |  |
| COc1ccc(C2=NN(c3cccc(F)c3)C(c3ccc(OC)cc3)C2)cc1 (stereo not given) | inactive |  |
| Cc1ccccc1C1CC(c2ccccc2)=NN1c1ccc(S(N)(=O)=O)cc1 (stereo not given) | inactive |  |
| CN(C)c1ccc(C2CC(c3ccc(Br)cc3)=NN2c2ccccc2)cc1 (stereo not given) | inactive |  |
| COc1cccc(C2CC(c3ccccc3)=NN2c2ccc(S(N)(=O)=O)cc2)c1 (stereo not given) | inactive |  |
| NS(=O)(=O)c1ccc(N2N=C(c3ccc(Cl)cc3)CC2c2ccccc2)cc1 (stereo not given) | inactive |  |
| NS(=O)(=O)c1ccc(N2N=C(c3ccccc3)CC2c2ccc(Cl)cc2)cc1 (stereo not given) | inactive |  |
| Cc1cccc(C2CC(c3ccccc3)=NN2c2ccc(S(N)(=O)=O)cc2)c1 (stereo not given) | inactive |  |
| O=[N+]([O-])c1ccc(N2N=C(c3ccccc3)CC2c2ccc(O)cc2)cc1 (stereo not given) | inactive |  |

— PubChem BioAssay AID2048 (NMMLSC, 2009)
